In PMC5614603, “Structural insights into substrate selectivity of ribosomal RNA methyltransferase RlmCD” (PLoS ONE, 2017):

Columns and labels:
[1] = biological target: T1, RlmCDs (Streptococcus pneumoniae, UniProt Q97R12); assay: in-vitro methyltransferase assay, 3H counting on RNA; type: biochemical; conditions: labelled compound (3H-SAM); 18-mer rRNA-h35, 3 mM MgCl2, pH 8.0, 37 °C, 2 h
T1 construct: gene SP_1029; core region residues 1-454; 8xHis-SUMO tag cut by ULP1; E. coli BL21 (Gold)

[2] = biological target: RlmCDs E443Q (Streptococcus pneumoniae, UniProt Q97R12 1-454, E443Q); assay: crystal structure (2.85 A); SAH (SAM added); only the 5-bp stem modelled, loop not visible; Crystallization: 8 mg/ml protein, protein:SAM:RNA 1:2:1.2, 0.1 M ammonium sulfate, 0.01 M MgCl2, 0.05 M MES, 20% w/v PEG8000, pH 5.6; protein storage buffer 20; conditions: protein: recombinant; tags: N-terminal 8xHis-SUMO, cleaved with ULP1; hairpin

Molecule	in-vitro methyltransferase assay, 3H counting on RNA [1]	binding result [2]
C[S+](CC[C@H](N)C(=O)O)C[C@H]1O[C@@H](n2cnc3c(N)ncnc32)[C@H](O)[C@@H]1O (some centres unmarked) [SAM]	both full-length RlmCD and its shorter construct RlmCDs exhibit strong MTase activity	–
GGCACGUUGAAAAGUGCC (structured_RNA, m5U at position 8 (U747)) [m5U747 rRNA-h35 (18-mer, 23S rRNA helix 35)]	–	binds
